SMILES strings stand for the structures. pIC50: −log10 of the molar value. Like-named read-outs stand apart in the source and are kept apart here.

This is an account of results in EP4755887A1, “POLYCYCLIC FUSED-RING BTK DEGRADATION AGENT AND USE THEREOF IN MEDICINE” (Haisco Pharmaceutical Group Co., Ltd., priority 2023, dated 2025).

The target in one series is BTK (Homo sapiens, UniProt Q06187). The series is described as follows: Detection of BTK degradation in Mino cells. Type of series: cell-based. Conditions: read-out: DC50 values for BTK degradation in Mino cells.
The test system of another series is TMD-8 cells. The series is described as follows: TMD-8 cell proliferation inhibitory activity test. To be noted: Homo sapiens, TMD8, 72 hours, CellTiter-Glo, read-out: IC50 values for inhibiting TMD-8 cell proliferation. Type of series: cell-based. Here is the method: TMD-8 is a human lymphoma cell line that expresses BTK protein and is used to evaluate the efficacy of compounds. […] The cells were seeded into a 96-well culture plate (Biosharp, BS-MP-96W) at a density of 3,000 cells per well. […] Following incubation, 50 µL of a detection solution (CellTiter-Glo®, Promega, G7573) was added to each well, and the plate was uniformly mixed for 2 minutes and incubated at room temperature for 10 minutes. The chemiluminescence reading was then measured using a microplate reader (Molecular Devices, SpectraMax Paradigm). The inhibition rate of cell proliferation by the compounds was calculated according to Equation (1), where RLU compound represents the readout from the compound-treated well, RLU control represents the readout from the DMSO vehicle control well, and RLU blank represents the readout from the cell-free well. Data analysis was performed using Graphpad Prism 8.0 software. The concentration-response curve was generated by fitting the data to a four-parameter equation, and the IC50 values for the compound's inhibition of cell proliferation were calculated. Inh% = 100%−(RLUcompound−RLUblank)/(RLUcontrol−RLUblank)*100% [formula] Table 1. IC50 values for inhibiting TMD-8 cell proliferation
On the technique in general: ATP-based viability assays read luminescence as a measure of living cells.

The nature of a further series: Caco2 permeability test. To be noted: human, Caco-2 monolayer, pH 7.4. Type of series: in vitro ADME.
Series [1] in a line: Pharmacokinetic test in rats. Format: in vivo. To be noted: male, SD, rat, plasma, po, i.g. (10 mg/kg).
Method: Experimental objective: In this experiment, a single dose of the test compound was administered to SD rats via intravenous administration and intragastric gavage, and the concentration of the test compound in plasma of the rats was measured to evaluate the pharmacokinetic profile of the test compound in the rats.
Experimental animals: Male SD rats, 200-220 g, 6-8 weeks old, 6 rats/compound, purchased from Chengdu Ddossy Experimental Animals Co., Ltd.
Experimental method: On the day of the experiment, 6 SD rats were randomly grouped according to their body weights. The animals were fasted with water available for 12 to 14 h one day before the administration, and were fed 4 h after the administration.
Sampling: Before and after the administration, 0.06-0.15 mL of blood was taken from the orbits under isoflurane anaesthesia, and placed in an EDTAK2 centrifuge tube. Centrifugation was carried out at 5000 rpm at 4°C for 10 min, and the plasma was collected.
The plasma collection time points for PO groups were 0, 5 min, 15 min, 30 min, 1 h, 2 h, 4 h, 7 h, 24 h, and 48 h.
The plasma collection time points for IV groups were 0, 5 min, 15 min, 30 min, 1 h, 2 h, 4 h, 7 h, and 24 h.
Before analysis and detection, all samples were stored at -60°C. The samples were analysed quantitatively by LC-MS/MS.
For a further series, the target named is BTK L528W (Homo sapiens, UniProt Q06187, L528W).
Where [2] appears, read: Mino cells, 6 hours, automated western blot.
Setting [3] is: 5 nM concentration, REC-1 BTK L528W cells, 6 hours.

Chain of BTK L528W (Q06187 whole entry L528W): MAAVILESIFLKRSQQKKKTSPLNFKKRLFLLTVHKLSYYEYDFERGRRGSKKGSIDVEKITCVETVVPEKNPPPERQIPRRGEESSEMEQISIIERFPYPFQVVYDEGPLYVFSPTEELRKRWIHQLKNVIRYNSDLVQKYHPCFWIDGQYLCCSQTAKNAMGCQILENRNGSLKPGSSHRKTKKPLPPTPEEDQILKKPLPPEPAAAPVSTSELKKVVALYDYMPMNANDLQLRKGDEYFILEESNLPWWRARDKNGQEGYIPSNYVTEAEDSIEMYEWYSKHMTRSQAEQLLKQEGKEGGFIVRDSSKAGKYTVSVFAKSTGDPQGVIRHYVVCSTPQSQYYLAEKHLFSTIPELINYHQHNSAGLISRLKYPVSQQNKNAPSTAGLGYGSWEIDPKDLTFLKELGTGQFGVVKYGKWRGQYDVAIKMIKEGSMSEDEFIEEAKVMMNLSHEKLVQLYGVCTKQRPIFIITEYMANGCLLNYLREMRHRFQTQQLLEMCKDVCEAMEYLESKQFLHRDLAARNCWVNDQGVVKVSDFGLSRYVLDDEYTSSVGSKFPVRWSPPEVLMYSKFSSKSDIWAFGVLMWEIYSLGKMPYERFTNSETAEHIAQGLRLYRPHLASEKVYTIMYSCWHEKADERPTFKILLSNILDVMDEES
Chain of BTK (Q06187 whole entry): as the sequence (Q06187 whole entry L528W) above, with W528L counted along it
Method for Caco2 permeability test: In the experiment, a monolayer of Caco-2 cells was used, and incubated in triplicate in a 96-well Transwell plate. A transport buffer solution (HBSS, 10 mM HEPES, pH 7.4 ± 0.05) containing the compound of the present invention (2 µM) or the control compound digoxin (10 µM), nadolol (2 µM) or metoprolol (2 µM) was added to the administration end hole on the apical side or basal side. A DMSO-containing transport buffer solution was added to the corresponding receiving end hole. After incubation for 2 hours at 37°C ± 1°C, the cell plate was removed, and an appropriate amount of samples was taken from both the apical side and basal side and transferred to a new 96-well plate. Subsequently, acetonitrile containing an internal standard was added to precipitate the protein. The samples were analysed using LC MS/MS, and the concentrations of the compound of the present invention and the control compound were determined. Concentration data were used to calculate apparent permeability coefficients for transport from the apical side to the basal side, and from the basal side to the apical side of the cell monolayer, and thus to calculate the efflux ratio. The integrity of the cell monolayer after 2 hours of incubation was evaluated by leakage of Lucifer Yellow.

As to `CN1CCN([C@@H]2CCCN(c3cnc(C(N)=O)c(Nc4ccc(N5CCC(CN6CCN7c8cc(F)c(C9CCC(=O)NC9=O)cc8CC[C@@H]7C6)C(F)(F)C5)cc4)n3)C2)C1=O` (single isomer, unassigned) [Compound 27], the DC50 on BTK (setting [2]) is less than 10 nM.

As to `CN1CCN([C@@H]2CCCN(c3cnc(C(N)=O)c(Nc4ccc(N5CCC(CN6CCN7c8cc(F)c(C9CCC(=O)NC9=O)cc8CC[C@@H]7C6)C(F)(F)C5)cc4)n3)C2)C1=O` (single isomer, unassigned) [Compound 28], at BTK (setting [2]), the DC50 was less than 10 nM.

Turning to `CN1CCN([C@@H]2CCCN(c3cnc(C(N)=O)c(Nc4ccc(N5CCC(CN6CCN7c8cc(F)c(C9CCC(=O)NC9=O)cc8CC[C@H]7C6)C(F)(F)C5)cc4)n3)C2)C1=O` (single isomer, unassigned) [Compound 29], at BTK (setting [2]), the DC50 is less than 10 nM.

For the compound `CN1CCN([C@@H]2CCCN(c3cnc(C(N)=O)c(Nc4ccc(N5CCC(CN6CCN7c8cc(F)c(C9CCC(=O)NC9=O)cc8CC[C@H]7C6)C(F)(F)C5)cc4)n3)C2)C1=O` (single isomer, unassigned) [Compound 30], the DC50 at BTK (setting [2]) was less than 10 nM.

Take `CN1CCN([C@@H]2CCCN(c3cnc(C(N)=O)c(Nc4ccc(N5CCC(CN6CCN7c8cc(F)c(C9CCC(=O)NC9=O)cc8CC[C@H]7C6)CC5)cc4)n3)C2)C1=O` (some centres unmarked) [Compound 11]: the pIC50 in the series with TMD-8 cells is greater than 7.70. Besides, in the series “Caco2 permeability test”, the apical-to-basolateral permeability (Papp A→B) at 2 h, 2 µM is 1.75 ×10⁻⁶ cm/s; the basolateral-to-apical permeability (Papp B→A) at 2 h, 2 µM came out at 3.74 ×10⁻⁶ cm/s; the efflux ratio at 2 h, 2 µM was determined as 2.14. In series [1] (Vehicle 1), the bioavailability is greater than 50% and the AUC(0-t) is greater than 1000 ng·h/mL. The DC50 at BTK (setting [2]) was less than 10 nM.

As to `CN1CCN([C@@H]2CCCN(c3cnc(C(N)=O)c(Nc4ccc(N5CCC(CN6CCN7c8cc(F)c(C9CCC(=O)NC9=O)cc8CC[C@@H]7C6)CC5)cc4)n3)C2)C1=O` (some centres unmarked) [Compound 12], in the series with TMD-8 cells, the pIC50 was greater than 7.70. In the series “Caco2 permeability test”, the apparent permeability from apical to basolateral (Papp A→B) at 2 h, 2 µM came out at 1.18 ×10⁻⁶ cm/s; the Papp B→A at 2 h, 2 µM came to 4.71 ×10⁻⁶ cm/s; the efflux ratio at 2 h, 2 µM was 3.99. Moreover, the DC50 on BTK (setting [2]) was less than 10 nM. The “BTK degradation rate %” value on BTK L528W (setting [3]) is reported as greater than 90%.

For `CN1CCN([C@@H]2CCCN(c3cnc(C(N)=O)c(Nc4ccc(N5CCC6(CC5)CC(CN5CCN7c8cc(F)c(C9CCC(=O)NC9=O)cc8CC[C@H]7C5)C6)cc4)n3)C2)C1=O` (some centres unmarked) [Compound 14], in “Caco2 permeability test”, the Papp A→B at 2 h, 2 µM is 0.35 ×10⁻⁶ cm/s; the Papp B→A at 2 h, 2 µM stood at 0.867 ×10⁻⁶ cm/s; the efflux ratio at 2 h, 2 µM was found to be 2.47. In addition, in series [1] (Vehicle 2), the exposure AUC(0-t) was greater than 1000 ng·h/mL. Besides, the DC50 at BTK (setting [2]) was less than 10 nM.

On to `CN1CCN([C@@H]2CCCN(c3cnc(C(N)=O)c(Nc4ccc(N5CCC(CN6CCN7c8cc(F)c(N9CCC(=O)NC9=O)cc8CC[C@@H]7C6)CC5)cc4)n3)C2)C1=O` [Compound 22], for which, in “Caco2 permeability test”, the Papp A→B at 2 h, 2 µM stood at 2.38 ×10⁻⁶ cm/s; the basolateral-to-apical permeability (Papp B→A) at 2 h, 2 µM was determined as 4.44 ×10⁻⁶ cm/s; the efflux ratio at 2 h, 2 µM was 1.87. In series [1] (Vehicle 2), this compound came in with an area under the curve AUC(0-t) greater than 1000 ng·h/mL. Further, the half-maximal degradation concentration (DC50) on BTK (setting [2]) is less than 10 nM.

Turning to `CN1CCN([C@@H]2CCCN(c3cnc(C(N)=O)c(Nc4ccc(N5CCC6(CC5)CC(N5CCN7c8cc(F)c(C9CCC(=O)NC9=O)cc8CC[C@H]7C5)C6)cc4)n3)C2)C1=O` (some centres unmarked) [Compound 31], at BTK (setting [2]), the DC50 is less than 10 nM.

As to `CN1CCN([C@@H]2CCCN(c3cnc(C(N)=O)c(Nc4ccc(N5CCC6(CC5)CC(N5CCN7c8cc(F)c(C9CCC(=O)NC9=O)cc8CC[C@@H]7C5)C6)cc4)n3)C2)C1=O` (some centres unmarked) [Compound 32], at BTK (setting [2]), the DC50 is less than 10 nM.

Regarding `CN1CCN([C@@H]2CCCN(c3cnc(C(N)=O)c(Nc4ccc(N5CCC6(CC5)CC(N5CCN7c8cc(F)c(C(=O)N[C@H]9CCC(=O)NC9=O)cc8CC[C@H]7C5)C6)cc4)n3)C2)C1=O` [Compound 34], the DC50 at BTK was less than 10 nM. The “BTK degradation rate %” value on BTK L528W is greater than 90%.

For `CN1CCN([C@@H]2CCCN(c3nnc(C(N)=O)c(Nc4ccc(N5CCC(CN6CCN7c8cc(F)c(C(=O)N[C@H]9CCC(=O)NC9=O)cc8CC[C@@H]7C6)CC5)cc4)n3)C2)C1=O` [Compound 47], on BTK, the DC50 is less than 10 nM. Also, at BTK L528W, the “BTK degradation rate %” value is listed as greater than 90%.

As for `CN1CCN([C@@H]2CCCN(c3cnc(C(N)=O)c(Nc4ccc(N5CCC6(CC5)CC(CN5CCN7c8cc(F)c(C(=O)N[C@H]9CCC(=O)NC9=O)cc8CC[C@@H]7C5)C6)cc4)n3)C2)C1=O` [Compound 50], the half-maximal degradation concentration (DC50) at BTK was less than 10 nM.

Regarding `[2H]C([2H])([2H])N1CCN([C@@H]2CCCN(c3nnc(C(N)=O)c(Nc4ccc(N5CCC(CN6CCN7c8cc(F)c(C(=O)N[C@H]9CCC(=O)NC9=O)cc8CC[C@@H]7C6)CC5)cc4)n3)C2)C1=O` [Compound 61], at BTK, the DC50 is less than 10 nM. Moreover, the “BTK degradation rate %” value on BTK L528W is given as greater than 90%.

For the compound `[2H]C([2H])([2H])N1CCN([C@@H]2CCCN(c3cnc(C(N)=O)c(Nc4ccc(N5CCC(CN6CCN7c8cc(F)c(N9CCC(=O)NC9=O)cc8CC[C@@H]7C6)CC5)cc4)n3)C2)C1=O` [Compound 66], on BTK, the DC50 is less than 10 nM. The “BTK degradation rate %” value at BTK L528W is greater than 80%.

Take `[2H]C([2H])([2H])N1CCN([C@@H]2CCCN(c3cnc(C(N)=O)c(Nc4ccc(N5CCC(CN6CCN7c8cc(F)c(C(=O)N[C@H]9CCC(=O)NC9=O)cc8CC[C@H]7C6)CC5)cc4)n3)C2)C1=O` [Compound 67]: the DC50 at BTK is less than 10 nM. For the same compound, the “BTK degradation rate %” value at BTK L528W is listed as greater than 90%.

On to `[2H]C([2H])([2H])N1CCN([C@@H]2CCCN(c3cnc(C(N)=O)c(Nc4ccc(N5CCC(CN6CCN7c8cc(F)c(C(=O)N[C@H]9CCC(=O)NC9=O)cc8CC[C@@H]7C6)CC5)cc4)n3)C2)C1=O` [Compound 68], for which the DC50 on BTK is less than 10 nM. At BTK L528W, the “BTK degradation rate %” value is given as greater than 90%.

Turning to `CN1CCN([C@@H]2CCCN(c3nnc(C(N)=O)c(Nc4ccc(N5CCC(CN6CCN7c8cc(F)c(C9CCC(=O)NC9=O)cc8CC[C@@H]7C6)CC5)c(F)c4)n3)C2)C1=O` (some centres unmarked) [Compound 77], in “Caco2 permeability test”, the Papp A→B at 2 h, 2 µM was 0.984 ×10⁻⁶ cm/s; the Papp B→A at 2 h, 2 µM stood at 4.89 ×10⁻⁶ cm/s; the efflux ratio at 2 h, 2 µM was determined as 4.97. Moreover, in series [1] (Vehicle 2), the area under the curve AUC(0-t) was greater than 1000 ng·h/mL. Besides, the “BTK degradation rate %” value on BTK L528W (setting [3]) is greater than 90%.

Regarding `COCCN1CCN([C@@H]2CCCN(c3nnc(C(N)=O)c(Nc4ccc(N5CCC(CN6CCN7c8cc(F)c(C9CCC(=O)NC9=O)cc8CC[C@H]7C6)CC5)cc4)n3)C2)C1=O` (some centres unmarked) [Compound 82], the “BTK degradation rate %” value on BTK L528W (setting [3]) is greater than 85%.

In the case of `COCCN1CCN([C@@H]2CCCN(c3nnc(C(N)=O)c(Nc4ccc(N5CCC(CN6CCN7c8cc(F)c(C9CCC(=O)NC9=O)cc8CC[C@H]7C6)CC5)c(F)c4)n3)C2)C1=O` (some centres unmarked) [Compound 83], at BTK L528W (setting [3]), the “BTK degradation rate %” value was greater than 85%.

In the case of `COCCN1CCN([C@@H]2CCCN(c3cnc(C(N)=O)c(Nc4ccc(N5CCC(CN6CCN7c8cc(F)c(C9CCC(=O)NC9=O)cc8CC[C@H]7C6)CC5)cc4)n3)C2)C1=O` (some centres unmarked) [Compound 84], the “BTK degradation rate %” value on BTK L528W (setting [3]) was greater than 70%.

With `NC(=O)c1nnc(N2CCC[C@@H](N3CCN(C4CC4)C3=O)C2)nc1Nc1ccc(N2CCC(CN3CCN4c5cc(F)c(C6CCC(=O)NC6=O)cc5CC[C@H]4C3)CC2)cc1` (some centres unmarked) [Compound 89], the “BTK degradation rate %” value at BTK L528W (setting [3]) was greater than 80%.

As for `CN1CCN([C@@H]2CCCN(c3cnc(C(N)=O)c(Nc4ccc(C5CCN(CC6CCN(c7ccc(C(=O)N[C@H]8CCC(=O)NC8=O)nc7)CC6)CC5)cc4)n3)C2)C1=O` [Control compound 1, reference compound], in “Caco2 permeability test”, the Papp A→B at 2 h, 2 µM was determined as 0.101 ×10⁻⁶ cm/s; the Papp B→A at 2 h, 2 µM came out at 5.27 ×10⁻⁶ cm/s; the efflux ratio at 2 h, 2 µM was found to be 52.5.

As for `CN1CCN([C@@H]2CCCN(c3cnc(C(N)=O)c(Nc4ccc(N5CCC(N6CCN7c8cc(F)c(C(=O)N[C@H]9CCC(=O)NC9=O)cc8CC[C@H]7C6)CC5)cc4)n3)C2)C1=O` [Trifluoroacetate of compound 36], the DC50 on BTK was less than 10 nM.

As for `NC(=O)c1nnc(N2CCC[C@@H](N3CCN(CC4CC4)C3=O)C2)nc1Nc1ccc(N2CCC(CN3CCN4c5cc(F)c(C6CCC(=O)NC6=O)cc5CC[C@H]4C3)CC2)cc1` (some centres unmarked) [Trifluoroacetate of compound 93], the “BTK degradation rate %” value on BTK L528W (setting [3]) is greater than 70%.

In general, DC50 refers to the concentration giving 50% degradation. As usually defined, the Papp A→B is the apparent permeability from the apical to the basolateral side of a cell layer. As usually defined, the Papp B→A is how fast a substance crosses the layer from the basolateral side. By efflux ratio is commonly meant the permeability from basolateral to apical divided by that in the opposite direction, in the common usage. What is called bioavailability is dose-corrected exposure relative to a reference, in per cent. High values mean much systemic uptake, low ones little systemic uptake. Broadly, the AUC(0-t) is exposure summed from dosing to a finite time, without extrapolation to infinity. A high value points to high exposure.
